melting point [°C]	SMILES
110 to 111	COC(=O)c1c(Sc2ccc(Cl)cc2)c2cc(C)ccc2n1C
164 to 169	CCCCCCCCCCCCCCOc1ccc(NC(=O)Nc2cccc(CBr)c2)cc1
242 to 243	COc1ccc(-c2cnc(N3CCc4c([nH]c5ccccc45)C3C3Cc4ccccc4O3)nc2)cc1 (stereo not drawn)
187 to 189	N#Cc1ccc(OCCCCOc2ccc(-c3cc4ccc(C#N)cc4o3)cc2)cc1
150 to 152	CC1(C)OC(c2ccc(S(C)(=O)=O)cc2)=C(c2ccc(O)cc2)C1=O
130	O=C1N(c2cc(Cl)nc(Cl)c2)C(=O)[C@@]2(Cc3ccc(OC(F)(F)F)cc3)C[C@H](n3cccc3)CN12
73 to 76	O=C(Nc1ccccc1N1CCc2ccccc21)c1ccccc1
186	CN(CCOc1ccc(CC2SC(=O)NC2=O)cc1)c1nccs1 (stereo not drawn)
280 to 290	Cc1c(-c2cccnc2)sc2nc(N)[nH]c(=O)c12
216	O=C1c2ccccc2C(=O)c2oc(-c3ccccc3Cl)nc21
107 to 109	O=Cc1ccc(-c2cnn(-c3ccc(OC(F)(F)F)cc3)c2)cc1
181 to 183	O=[N+]([O-])c1ccccc1COc1ccc2ncc3c(c2c1)C(O)CCC3 (stereo not drawn)
102 to 103	COC(=O)c1cc(OCc2ccccc2)c(OCc2ccccc2)c(OCc2ccccc2)c1
206 to 208	CCC(O)c1ccc(Cl)c2nc3n(c12)CCCN3c1c(Cl)cc(OC)cc1Cl (stereo not drawn)
98 to 99	CS(=O)(=O)c1ccc(-c2cc(CO[N+](=O)[O-])nn2CC2CCCCC2)cc1
84 to 85	CCOCC(N=O)C(C)(C)Cl (stereo not drawn)
167 to 168	O=C(O)c1ccc(N(CCOc2cccc3ccccc23)C(=O)C(F)(F)F)cc1
89 to 90	CCOC(=O)C(C)(C)CCCCOc1cc(C)c(N=Nc2ccc([N+](=O)[O-])cc2)c(C)c1
135 to 140	NCC1Cc2cccc(-c3ccc4ccccc4c3)c2O1 (stereo not drawn)
105	CCC1c2ccccc2-c2cc(-c3cccc(O)c3)ccc2N1S(=O)(=O)c1ccc(O)cc1 (stereo not drawn)
248 to 250	CCCn1c(=O)c2[nH]c(C3CCCC3)nc2n(CCc2ccc(N)cc2)c1=O
118 to 119	COc1ccc(C(=O)c2ccc(Oc3ccccc3)cc2)cc1
89 to 91	Nc1c(Cl)cc(C(O)CNCCCCCOCCCc2ccc(C(=O)O)o2)cc1Cl (stereo not drawn)
203 to 206	CNc1cccc([N+](=O)[O-])c1C#N

melting point [°C]	SMILES
192 to 193	CSCCC(=O)NCc1cccc(-c2nc(=O)c3ccccc3s2)n1
135 to 136	COc1ccc(CC(=O)NC(NC(=NC#N)Nc2ccccc2Cl)C(C)(C)C)cc1OC (stereo not drawn)
111 to 113	CCOC(=O)Cc1ccc(CCN2CCN(C(=O)C=Cc3cc(C(C)(C)C)c(O)c(C(C)(C)C)c3)CC2)cc1
142 to 143	COCC1CN(c2ccc(C3CCC(O)CC3)cn2)C(=O)O1 (racemic)
92 to 94	COc1ccc2sn(C(C)(C)C)c(=O)c2c1
160 to 170	CCOC(=O)c1ccc(N=C(Nc2ccc(C(=O)OCC)cc2)c2cccc(Cl)c2)cc1
188 to 190	COc1ccc2nc(COc3ccc(CC(SC)C(N)=O)cc3)n(C)c2c1 (stereo not drawn)
74 to 76	CCCC(=NO)c1ccc(OCOC)cc1
165	CN(CCOCCO)S(=O)(=O)c1ccc(NC=C2C(=O)Nc3ccc4ncsc4c32)cc1
205 to 207	O=C(/C=C/c1ccc(C(F)(F)F)cc1Br)Nc1ccc2[nH]ccc2c1
66 to 67	Cc1cccc(CCOc2ccc(C#N)cc2)n1
113 to 115	C=CCOc1ccc(OC2CCCCO2)c2c1CCC(=O)N2 (stereo not drawn)
119 to 122	O=C(CCc1cc2ccccc2s1)N1C(=O)OC[C@@H]1Cc1ccccc1
75 to 80	Cc1nnc(SCc2ccc(C(=O)N(C)C)cc2)s1
176 to 178	CNC(=O)c1cccc(NC(=O)Cc2cccc(Br)c2)c1
86 to 88	O=C1NCCc2ccc(OCCCCN3CCCN(c4cccc(Cl)c4Cl)CC3)cc21
189 to 191	Cn1cc(CCN2C(=O)c3ccccc3C2=O)c2cc(CNC=O)ccc21
203 to 204	C[C@H](CO)NC1=NS(=O)(=O)c2sc(Cl)cc2N1
175	CCOC(=O)CCc1nc2cccnc2n(-c2cccc(NC(=O)Nc3ccccc3OC)c2)c1=O
115 to 118	CCc1ccc(C(=O)c2ccccc2C(=O)O)c(CC)c1
> 260	O=C1CCC2=C1C(c1ccc(Br)c(Br)c1)C1=C(CCS1)N2 (stereo not drawn)
198 to 202	O=C(c1ccc(F)cc1)C1CCN(CCCn2c(=O)[nH]c3cc(Cl)c(Cl)cc32)CC1
119 to 122	CC(C)c1nc(CCOCc2ccccc2)n(Cc2cccc([N+](=O)[O-])c2)c1Sc1cc(Cl)cc(Cl)c1
288	Cc1cnc2c(NC(=O)c3c(Cl)cccc3Cl)cccc2c1N1CCN(C)C1=O

melting point [°C]	SMILES
60 to 63	CCCCCCCCCCCCCCc1ccc(C(=O)OCC)[nH]1
213 to 216	COc1ccc(Nc2nc(=O)cc(N)n2-c2ccccc2)cc1
245	O=C1NC(O)(C(Cl)(Cl)Cl)NC1=O
145	CCOC(=O)CCNC(=S)Nc1ccc2cn[nH]c2c1
99 to 101	Cc1cc(NC(=O)C(=O)N(C)Cc2ccccc2)cc(C)c1S(=O)(=O)C[N+](=O)[O-]
122 to 124	O=C(OCc1ccccc1)[C@@H](CC1=CCCC1)OS(=O)(=O)c1ccccc1[N+](=O)[O-]
243	N#Cc1ccc(NC2CCN(Cc3ccc(C(F)(F)F)cc3)CC2)nn1
124 to 127	COc1ccc(C(CN)C(CN)c2ccc(Cl)cc2)cc1 (stereo not drawn)
133 to 140	Cc1cccc(-c2ccc3c(c2)CC[C@H]2N(C)C(=O)CC[C@]32C)c1C
270 to 274	O=c1[nH]c2cc([N+](=O)[O-])c3c(c2[nH]c1=O)CN(C(=S)Nc1ccccc1)CC3
103 to 104	COC1(c2ccc(C(F)(F)F)cc2CN(Cc2cc(C(F)(F)F)cc(C(F)(F)F)c2)c2nnn(C)n2)CCCCCC1
188 to 189	Cn1ncc(/C=C/C(=O)Nc2ccc(CC(C)(C)O)cc2)c1-c1ccc(F)cc1
233 to 235	CNc1nc(Nc2ccc(Cl)c(Cl)c2)ncc1NS(=O)(=O)Cc1ccccc1
150 to 151	CCCc1cc(=O)oc2cc(OS(=O)(=O)c3ccc(C)cc3)c3c(c12)OC(C)(C)C=C3
158 to 167	CN(C)C(=S)Oc1ccc(S(=O)(=O)c2ccc(C#N)cc2)cc1
111 to 113	O=C(Nc1cccc([N+](=O)[O-])c1)C(F)(F)C(F)(F)F
100 to 102	CN1CC2CN(C)CC(C1)C2OC(=O)c1ccccc1 (stereo not drawn)
196 to 197	CC(C)(F)C1COCc2nc3c(N)nc4c(c3n21)CCCC4 (stereo not drawn)
114 to 117	CCOC(=O)c1c[nH]c(Br)c1-c1cccc(F)c1
225	O=C(O)c1cc(C(F)(F)F)cc(Cl)c1-n1cnc(C(F)(F)F)cc1=O
102 to 105	Cc1nnc(COc2cccc(NC(=O)N(C)C)c2)o1
185	CCOC(=O)C1=C2NCCN2C(C)=C(C(=O)OC)C1c1ccccc1[N+](=O)[O-] (stereo not drawn)
107 to 109	COC(=O)CCCc1cc2cc(Cl)ccc2n1S(=O)(=O)c1cccc(OC)c1
275 to 278	CCc1cccc(C)c1CNc1cc(C(=O)O)cc2c1nc(COC)n2C

melting point [°C]	SMILES
142 to 144	CCOC(=O)C(C#N)=Cc1cc(OC)c(C(=O)OC)c(OC)c1
57 to 59	CC(C)Oc1ccc(CCCO)c(Oc2ncc(Cl)cc2Cl)c1
> 250	CC(Cc1ccc(C(=O)N[C@@H](CCC(=O)O)C(=O)O)cc1)C1CNc2nc(N)nc(O)c2C1 (stereo partly drawn)
137 to 138	O=C(CCC(=O)N1CCC[C@H]1C(=O)O)c1ccc(Cl)cc1
57 to 60	CCOC(=O)Cn1nnnc1Cl
121 to 122	CCNc1c(OC)cc(C(O)CS(C)(=O)=O)cc1OC (stereo not drawn)
242 to 244	Cc1nc(N)c2nc(C)n(NC3CCCCC3)c2c1C
130 to 132	O=C1C(CCS(=O)c2ccccc2)C(=O)N(c2ccccc2)N1c1ccccc1 (stereo not drawn)
188 to 190	Cn1ncnc1COc1nc2c(nnn2-c2ccccc2)c2ccccc12
120	COc1cc(C(=O)CBr)ccc1OCC(F)(F)F
103 to 105	O=C(O)C(c1ccc([N+](=O)[O-])cc1)N1CCCC1 (stereo not drawn)
83 to 86	COc1ccc(C(=NOC(C)=O)c2ccccc2F)c(O)c1C
90 to 91.5	CN1CCN(C(=O)c2cc(=O)c3c(OCCOc4ccccc4)cccc3o2)CC1
186 to 188	CC(C)CNc1cccc(-c2ccnc3c(C(=O)c4cccs4)cnn23)c1
189 to 190	CC(C)(C)c1cc(CCc2ccccc2NC(=O)NCc2ccccn2)cc(C(C)(C)C)c1O
99 to 100	CC(C)[C@H](NC(=O)OCc1ccccc1)C(=O)OCc1nc2c(N)nc3ccccc3c2n1CCCCNS(C)(=O)=O
166 to 167	Cc1nccn1N=Cc1ccc(N(C)C)cc1
162 to 163	CC(C)(C)c1ccc(Oc2ncnc3cc(-c4ncccc4C(F)(F)F)ccc23)cc1
148 to 154	N#CCCNC(=O)c1cccc(-c2ccc3c(c2)N(c2ccc(Cl)cc2Cl)CC3)c1
223 to 225	CCc1nn(-c2cc([N+](=O)[O-])ccc2Br)c(=O)n1Cc1ccc(-c2ccccc2S(=O)(=O)NC(C)(C)C)cc1F
180	COCCC(=O)N[C@H]1CC[C@H](CCN2CCN(c3nccc4c3OCC4)CC2)CC1
166	CCCCNC(=O)Oc1cccc(NC(=O)C=C(C)OC)c1

SMILES	melting point [°C]
CN1CCN(c2ccc([N+](=O)[O-])cc2F)CC1	68 to 70
CC1N(C)c2cc3[nH]c(=O)cc(C(F)(F)F)c3cc2C1(C)C (stereo not drawn)	248 to 249
COC(=O)CNC(=O)OC1c2ccccc2C(=O)N1c1ccc2ccc(Cl)nc2n1 (stereo not drawn)	208 to 210
CN1C(=O)C(F)N=C(c2ccccc2)c2cc(Cl)ccc21 (stereo not drawn)	145 to 147

From a melting point compilation (Tetko et al.; mined from patent text by program, amines drawn as free bases though some values may be those of a salt)
